According to patent US20160296591A1, “COMPOSITIONS AND METHODS FOR TREATMENT OF BDNF-RELATED CONDITIONS” (TARIX PHARMACEUTICALS LTD., priority 2013, published 2016):

Key:
Type in all cases: cell-based, human
BDNF [1] = test: BDNF production in HUVEC, serum-free medium (BDNF Emax immunoassay); details: for lowest dose able to stimulate significant BDNF expression: serum-free medium, 24 hours stimulation, dose response 1×10^−14M to 1×10^−6M
Experimental: (§1) Prior to stimulation, cells were washed twice with sterile PBS and then provided with the respective serum free cell medium. Cells were incubated in the serum-free medium for one hour and afterwards stimulated for 24 hours. For the dose response measurement the peptides were used in a range from 1×10^−14M to 1×10^−6M. For all other experiments, a 1×10^−7M concentration of the peptides was used, whereas isoproterenol and forskolin were used in a 10^−6M concentration. To maintain the concentration of the substances over a period of 24 hours they were added again into the medium after 12 hours. After stimulation, the concentration of BDNF was determined in the cell medium. The samples were either used directly or stored at −80° C.
(§2) For the determination of the concentration of BDNF the BDNF Emax® immunoassay system from Promega was used. At first, 96-well plates were coated with anti-BDNF overnight at 4° C. The next day, the plates were washed with TBST and incubated with blocking buffer for one hour at room temperature. Afterwards, the plate was washed again with TBST, and 100 μl of sample were applied per well. The plate was incubated on a shaker (˜400 rpm) for two hours at room temperature and later on washed five times with TBST. To each well 100 μl pAb anti-human BDNF were added, and the plate again incubated under continuous shaking for two hours at room temperature. Thereafter, the plate was washed five times with TBST, each well applied with 100 μl anti-IgY-HRP conjugate, and incubated at room temperature with shaking for one hour. Then, the plate was washed five times with TBST and incubated for 10 min at room temperature on a shaker with TMB One Solution. The reaction was stopped with 1 M hydrochloric acid and the absorbance was measured immediately at 450 nm. The BDNF concentration was determined from a standard curve.

BDNF [2] = test: BDNF production in HDMEC, serum-free medium (BDNF Emax immunoassay); details: for lowest dose able to stimulate significant BDNF expression: serum-free medium, 24 hours stimulation, dose response 1×10^−14M to 1×10^−6M
Experimental: as §1, §2

BDNF [3] = test: BDNF production in HUVEC in complete (serum-containing) medium; details: peptide 1×10^−7M, 24 hours
Experimental: […] […] For the dose response measurement the peptides were used in a range from 1×10^−14M to 1×10^−6M. For all other experiments, a 1×10^−7M concentration of the peptides was used, whereas isoproterenol and forskolin were used in a 10^−6M concentration. To maintain the concentration of the substances over a period of 24 hours they were added again into the medium after 12 hours. After stimulation, the concentration of BDNF was determined in the cell medium. The samples were either used directly or stored at −80° C.
as §2, with “Thereafter, the plate was washed five times with TBST, each well applied with 100 μl anti-IgY-HRP conjugate, and incubated at room temperature with shaking for one hour. Then, the plate was washed five times with TBST and incubated for 10 min at room temperature on a shaker with TMB One Solution.” left out, “curve. […]” for “curve.”

cAMP = cAMP production in HUVEC (cAMP enzyme immunoassay); details: 15 minutes of stimulation
Experimental: Prior to stimulation with Ala^1-Arg^2-Val^3-Ser^4-Ile^5-His^6-Cys^7 (SEQ ID NO: 24), HUVEC cells were washed twice with PBS and then incubated for 1 hour in serum-free medium. In this Example, in order to generate a dose response curve, the peptide concentration ranged from 1×10^−13-1×10^−6 M. After 15 minutes of stimulation, the medium containing the peptide was removed and the cells were lysed (0.1M HCl, 0.1% Triton X-100). The clear lysate was collected, and 25 μl were used for determining the protein concentration (Pierce BCA Protein Assay Kit, Thermo Scientific, Rockford, USA) and the remaining fraction stored at −80° C. for later analysis.
cAMP concentration in cell lysates was determined using cAMP Enzyme Immunoassay Kit, Direct from Sigma-Aldrich (St. Louis, Mo., USA). Briefly, wells of 96-well plate (Goat Anti-Rabbit IgG pre-coated) were neutralized with 50 μl of Neutralizing Reagent. Next, 100 μl of acetylated cyclic AMP standard or cell lysate was added, followed by 50 μl of blue cAMP-Alkaline Phosphatase Conjugate and 50 μl of yellow EIA Rabbit Anti-cAMP antibody. The plate was then incubated on a shaker (˜500 rpm) for two hours at room temperature. […] The enzymatic reaction was stopped by adding 50 μl of Stop Solution, and the absorbance at 405 nm was measured immediately. The cAMP concentration was determined from non-linear standard curve using GraphPad Prism 5.0 software. […]

Row | Molecule | lowest dose able to stimulate significant BDNF expression (BDNF [1]) [pM] | lowest dose able to stimulate significant BDNF expression (BDNF [2]) [pM] | BDNF stimulation compared to control (BDNF [3]) | dose of the observed maximum of cAMP (cAMP) | lowest dose giving a significant increase in cAMP (cAMP; dose response 1×10^−13-1×10^−6 M) [pM] | BDNF expression at doses 100,000 times higher than 1×10^−11 compared with 1×10^−11 M (BDNF [1]) | BDNF expression at doses 100,000 times higher than 1×10^−11 compared with 1×10^−11 M (BDNF [2])
1 | CCC(C)C1NC(=O)C(NC(=O)C(NC(=O)C(CCCNC(=N)N)NC(=O)C(N)CC(=O)O)C(C)C)CSCC(C(=O)O)NC(=O)C(Cc2c[nH]cn2)NC1=O (centres unmarked) [Pancyte] | 10 | 10 | still able to stimulate BDNF above control levels |  |  |  | 
2 | Ala^1-Arg^2-Val^3-Ser^4-Ile^5-His^6-Cys^7 (ARVSIHC) [SEQ ID NO:24] |  |  |  | approximately 1×10^−9 M | 10 |  | 
3 | Asp^1-Arg^2-Val^3-Tyr^4-Ile^5-His^6-Pro^7 (DRVYIHP) [Ang (1-7), naturally-occurring Angiotensin (1-7), seven amino acid peptide] | 10000 | 10000 |  |  |  |  | 
4 | TXA301: angiotensin (1-7) peptide tested; not defined in the text, possibly linear SEQ ID NO: 6 (DRVSIHC) | 10 | 10 |  |  |  | statistically similar levels of expression | statistically similar levels of expression
